Measurements taken from the supplement of paper PMC11208160.

assay: recombinant UMI read abundance after kanamycin selection (control-corrected) (log10(CPM+1)); higher = more efficient recombination; extreme values may be limits of the assay; sequences stand for … in AGTGCAGAGAAAATCGGCCAGTTTTCTCTGCCTGCAGTCCGCATGCCGTGGGACCCCTTGGGTTCTAACCTGTTGCCTAGATTTATGCAGCGGACTGCCTTTCTCCCAAAGTGATAAACCGG…AGGTTGGTTTCACT; site = the 11-nt donor
Summary of the method: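 Sequencing read counts were converted to CPM, averaged over two replicates and scaled by control-derived factors. Results are given as log10(CPM+1). The reads covered the donor–target junction of recombinant UMIs from a pooled Escherichia coli screen of donor and donor-binding-loop pairs for the IS621 bridge recombinase.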
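Also: IS621 bridge recombinase in Escherichia coli cells against a fixed T5 target plasmid.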

In order of rising “recombinant UMI read abundance (log10)” value:
1. CCCTAGGCATGGACCGGTTTTCCCGGTAATCCGTATTTGCC (site CCCTAGGCTGG)  0
2. CCTAAAACATGGACCGGTTTTCCCGGTAATCCGTATTTGAT (site CCTAAATCTAT)  0
3. ACTGTGTCATGGACCGGTTTTCCCGGTAATCCGTATTTGAC (site ACTGTGTCTGT)  0
4. AATATGTCATGGACCGGTTTTCCCGGTAATCCGTATTTGAC (site AATGTGTCTGT)  0
5. TCTAATTCATGGACCGGTTTTCCCGGTAATCCGTATTTGCC (site TCAAATTCTGG)  0
6. CAATCCTCATGGACCGGTTTTCCCGGTAATCCGTATTTGCC (site CAGTCCTCTGG)  0
7. TGTTCACCATGGACCGGTTTTCCCGGTAATCCGTATTTGAC (site TGTTCACCTGT)  0
8. CCCTAGCCATGGACCGGTTTTCCCGGTAATCCGTATTTGCC (site ACCTAGCCTGG)  0
9. ACTGTACCATGGACCGGTTTTCCCGGTAATCCGTATTTGCA (site ACTGTACCTTG)  0
10. CCTGAAGCATGGACCGGTTTTCCCGGTAATCCGTATTTGAT (site CCTTAAGCTAT)  0
11. CCGGAACCATGGACCGGTTTTCCCGGTAATCCGTATTTGAT (site CGGGAACCTAT)  0
12. CAGGCAGCATGGACCGGTTTTCCCGGTAATCCGTATTTGCT (site CACGCAGCTAG)  0
13. AATGTGTCATGGACCGGTTTTCCCGGTAATCCGTATTTGAC (site AATGCGTCTGT)  0
14. AATGAAACATGGACCGGTTTTCCCGGTAATCCGTATTTGCT (site AATGGAACTAG)  0
15. TACTTGACATGGACCGGTTTTCCCGGTAATCCGTATTTGAT (site TACTTGACTAG)  0.00211
16. CGCAATCCATGGACCGGTTTTCCCGGTAATCCGTATTTGTT (site CGAAATCCTAA)  0.00301
17. ACAGTATCATGGACCGGTTTTCCCGGTAATCCGTATTTGCA (site ACAGTAGCTTA)  0.00334
18. CGAGCACCATGGACCGGTTTTCCCGGTAATCCGTATTTGGG (site CGAGAACCTCC)  0.00342
19. CAACGCTCATGGACCGGTTTTCCCGGTAATCCGTATTTGAA (site CAAGGCTCTTT)  0.00387
20. CGATCATCATGGACCGGTTTTCCCGGTAATCCGTATTTGCG (site CGATCATCTTG)  0.00387
21. GCGCTCACATGGACCGGTTTTCCCGGTAATCCGTATTTGAT (site GGGCTCACTAT)  0.00525
22. AGCCCGCCATGGACCGGTTTTCCCGGTAATCCGTATTTGGG (site AGCCCGCCTCC)  0.00589
23. CCGTCATCATGGACCGGTTTTCCCGGTAATCCGTATTTGAT (site CCGTCATCTAT)  0.00671
24. AATTATGCATGGACCGGTTTTCCCGGTAATCCGTATTTGCA (site AATTATGCTTA)  0.00932
25. TCAGAGCCATGGACCGGTTTTCCCGGTAATCCGTATTTGCG (site TCAGAGACTCG)  0.00993
26. ACATCTACATGGACCGGTTTTCCCGGTAATCCGTATTTGTT (site ACATCTACTCA)  0.0105
27. CACTGCCCATGGACCGGTTTTCCCGGTAATCCGTATTTGTT (site CACGGCCCTAA)  0.0106
28. GCTTGCCCATGGACCGGTTTTCCCGGTAATCCGTATTTGAT (site GGTTGCCCTAT)  0.0122
29. TCTAGGCCATGGACCGGTTTTCCCGGTAATCCGTATTTGGA (site TCTAGGCCTTC)  0.0125
30. CCCTTCTCATGGACCGGTTTTCCCGGTAATCCGTATTTGGG (site CCCTTCTCTCG)  0.0129
31. CGGATTCCATGGACCGGTTTTCCCGGTAATCCGTATTTGTA (site CGGAATCCTAA)  0.0133
32. ACTACTGCATGGACCGGTTTTCCCGGTAATCCGTATTTGGT (site ACTAATGCTAC)  0.0144
33. TATTGGACATGGACCGGTTTTCCCGGTAATCCGTATTTGAC (site GATTGGACTGT)  0.0156
34. AAGGACGCATGGACCGGTTTTCCCGGTAATCCGTATTTGGG (site AAGCACGCTCC)  0.0166
35. AGGTCCTCATGGACCGGTTTTCCCGGTAATCCGTATTTGGG (site AGGTCCTCTCC)  0.0176
36. CCCCATACATGGACCGGTTTTCCCGGTAATCCGTATTTGTA (site CCCCACACTTA)  0.0183
37. GGCCAGCCATGGACCGGTTTTCCCGGTAATCCGTATTTGTA (site GGCCAGCCTTA)  0.0264
38. CCTCACACATGGACCGGTTTTCCCGGTAATCCGTATTTGTA (site CCGCACACTTA)  0.0283
39. ACATCTACATGGACCGGTTTTCCCGGTAATCCGTATTTGTT (site ACATCTACTAA)  0.142
40. CCTGAAGCATGGACCGGTTTTCCCGGTAATCCGTATTTGAT (site CCTGAAGCTAT)  0.209
41. CCTGAAGCATGGACCGGTTTTCCCGGTAATCCGTATTTGAT (site CCTAAAGCTAT)  0.231
42. CAAGTAACATGGACCGGTTTTCCCGGTAATCCGTATTTGGG (site CAAGTTACTCC)  0.237
43. ATTAGTGCATGGACCGGTTTTCCCGGTAATCCGTATTTGGT (site AGTAGTGCTAC)  0.243
44. CGGACAGCATGGACCGGTTTTCCCGGTAATCCGTATTTGCT (site CGGACAACTAG)  0.393
45. GTAGATTCATGGACCGGTTTTCCCGGTAATCCGTATTTGTT (site GAAGATTCTAA)  0.559
46. TCTTACACATGGACCGGTTTTCCCGGTAATCCGTATTTGCC (site TCTTACACTGG)  0.565
47. CTTATCTCATGGACCGGTTTTCCCGGTAATCCGTATTTGTA (site CTTGTCTCTTA)  0.606
48. AGTCTGACATGGACCGGTTTTCCCGGTAATCCGTATTTGGA (site AGTCTGACTTC)  0.729
49. CCCATATCATGGACCGGTTTTCCCGGTAATCCGTATTTGTC (site CCCATTTCTGA)  0.731
50. TAGACAACATGGACCGGTTTTCCCGGTAATCCGTATTTGAG (site TAGACAACTCT)  0.821
51. CGCCTGTCATGGACCGGTTTTCCCGGTAATCCGTATTTGTT (site CGCCTGTCTAA)  0.902
52. TAGCTAACATGGACCGGTTTTCCCGGTAATCCGTATTTGAA (site TAGCTAACTTT)  1.09
53. CGATCGACATGGACCGGTTTTCCCGGTAATCCGTATTTGTA (site CGATCGACTTA)  1.19
54. CTGCGTGCATGGACCGGTTTTCCCGGTAATCCGTATTTGGT (site CTGCGTGCTAC)  1.37
55. CTACTAACATGGACCGGTTTTCCCGGTAATCCGTATTTGGA (site CTAATAACTTC)  1.38
56. ACACGAACATGGACCGGTTTTCCCGGTAATCCGTATTTGTC (site ACACAAACTGA)  1.4
57. GATTGGACATGGACCGGTTTTCCCGGTAATCCGTATTTGAC (site GAATGGACTGT)  1.41
58. GAAGATTCATGGACCGGTTTTCCCGGTAATCCGTATTTGTT (site AAAGATTCTAA)  1.45
59. TTTGGGGCATGGACCGGTTTTCCCGGTAATCCGTATTTGAC (site TTTGGGGCTGT)  1.57
60. GTTTAGTCATGGACCGGTTTTCCCGGTAATCCGTATTTGAT (site GTTTAGTCTAT)  1.59
61. ACACGAACATGGACCGGTTTTCCCGGTAATCCGTATTTGTC (site ACACGGACTGA)  1.61
62. CCCCACCCATGGACCGGTTTTCCCGGTAATCCGTATTTGTA (site CCCCACTCTTA)  1.78
63. CGCAAGACATGGACCGGTTTTCCCGGTAATCCGTATTTGCA (site CGCAAGACTTG)  1.79
64. GATTGGACATGGACCGGTTTTCCCGGTAATCCGTATTTGAC (site TATTGGACTGT)  1.83
65. CCATCTGCATGGACCGGTTTTCCCGGTAATCCGTATTTGAA (site CCATCTGCTTT)  1.91
66. CAACGCTCATGGACCGGTTTTCCCGGTAATCCGTATTTGAA (site CAACGCTCTTT)  2.06
67. CGGATGACATGGACCGGTTTTCCCGGTAATCCGTATTTGAT (site CGGATGACTAT)  2.14
68. AATGTAACATGGACCGGTTTTCCCGGTAATCCGTATTTGCT (site AACGTAACTAG)  2.22
69. GTTGGTACATGGACCGGTTTTCCCGGTAATCCGTATTTGAC (site GTTGGTACTGT)  2.36
70. GTAGGTACATGGACCGGTTTTCCCGGTAATCCGTATTTGGC (site GTAGGTACTGC)  2.38
71. TAATGAGCATGGACCGGTTTTCCCGGTAATCCGTATTTGGC (site TAATGAGCTGC)  2.42
72. GTCAGCGCATGGACCGGTTTTCCCGGTAATCCGTATTTGGC (site GTCAGCGCTGC)  2.6
73. CTAGTAACATGGACCGGTTTTCCCGGTAATCCGTATTTGAC (site CTAGTAGCTGT)  2.73
74. CGGGATTCATGGACCGGTTTTCCCGGTAATCCGTATTTGTT (site CGGGATTCTAA)  2.91
75. CTGGTATCATGGACCGGTTTTCCCGGTAATCCGTATTTGAC (site CTGGTATCTGT)  3.22
